Assay results reported in US20220117920A1, “N-Aryl Benzenesulfonamides as Protonophores for the Treatment of Cancers, Metabolic Diseases and Traumatic Brain Injury” (University of Kentucky Research Foundation, priority 2019, published 2022).

Columns and labels:
Hep3B cells = experiment: [3H]-thymidine incorporation assay, Hep3B; assay type: cell-based, human; conditions: 72 h
Method: (§1) Huh7, PLC/PRF/5 and Hep3B cells were plated in 96-well plates at 3000-4000 cells/well, treated with the concentrations indicated of FH535 or FH535-N, as single agents or in combination with sorafenib, and cultured for 72 h. ^3H-thymidine incorporation assay was performed as described previously.

AMPK = experiment: Western blot of AMPK (T172) and ACC (S79) phosphorylation in CRC cells; assay type: cell-based, human; conditions: concentration not given
Method: Biochemistry. Western blotting: Cells were lysed in the appropriate volume of lysis buffer: 50 mM HEPES, 100 mM NaCl, 2 mM EDTA, 1% (v/v) glycerol, 50 mM NaF, 1 mM Na3VO4, 1% (v/v) Triton X-100, with protease inhibitors. The following antibodies were used: AMPK (Cell Signaling, 2532, Cell Signaling Technologies, Danver, Mass., USA), pAMPK (Cell Signaling, 2535), ACC (Cell Signaling, 3676), pACC (Cell Signaling, 11818), Actin (Sigma, A1978). Antibodies for Axin 2, c-Myc and Cyclin D1 have been described previously. ATP analysis: Cells growing in 12-well plates were treated with DMSO or inhibitors in DMSO solution and lysed by adding 1 mL boiling doubly distilled water. Supernatants were analyzed by luminescence using ATP Determination Kit (Invitrogen, A22066; Thermo Fisher Scientific, Waltham, Mass., USA).

[1] = tested on: Wnt/β-catenin target genes; experiment: Expression of downstream β-catenin targets in Huh7 cells (western blot, RT-qPCR); assay type: cell-based, human; conditions: Huh7, 36 h
Method: (§2) Primary antibodies are described in Table 1.
Total RNA was extracted with miRNeasy mini kit (Qiagen, Germany), and the corresponding cDNA was produced using iScript cDNA synthesis kit (BioRad, USA) from 1 μg of total RNA. Real time quantitative PCR (RT-qPCR) was performed using SsoAdvanced Universal SYBR Green supermix (BioRad, USA) with specific primers: p62 (SQSTM1: 5′-[…]-3′ (SEQ ID NO: 1) and 5′-[…]-3′ (SEQ ID NO: 2)); c-MYC (cMYC: 5′-[…]-3′ (SEQ ID NO: 3) and 5′-[…]-3′ (SEQ ID NO: 4)), Survivin (BIRC5, 5′-[…]-3′ (SEQ ID NO: 5) and 5′-[…]-3′ (SEQ ID NO: 6)), AXIN 2 (AXIN2: 5′-[…]-3′ (SEQ ID NO: 7) and 5′-[…]-3′ (SEQ ID NO: 8)), Cyclin D1 (5′-CCND1: […]-3′ (SEQ ID NO: 9) and 5′-[…]-3′ (SEQ ID NO: 10)), and b2-microglobulin (B2M: 5′-[…]-3′ (SEQ ID NO: 11) and 5′-[…]-3′ (SEQ ID NO: 12)). Transcript levels were normalized to β-actin or […] level as indicated using the ΔΔCt method.

PLC/PRF/5 cells [2] = experiment: Annexin V/PI apoptosis assay, PLC/PRF/5; assay type: cell-based, human; conditions: PLC/PRF/5, 48 h
Method: (§3) Apoptosis assay was performed in Huh7 and PLC/PRF/5 cells treated 48 h with DMSO vehicle control or the indicated doses of FH535, FH535-N alone or in combination with sorafenib. Cells were harvested and stained with the APC Annexin V apoptosis detection kit with PI (BioLegend, USA) according to the manufacturing instructions followed by flow cytometry analysis. Flow cytometry data was acquired with an LSRII instrument (BD-Biosciences) and analyzed with FlowJo software (Tree Star).

Wnt/β-catenin pathway = experiment: TOP-Flash TCF4-dependent dual luciferase reporter assay in Huh7 cells; assay type: cell-based, human; conditions: Huh7, 10 mM LiCl
Method: Cells were plated at 1×10^5 cells/well in 24-well plates and transiently transfected with 490 ng of luciferase-reporter plasmid and 10 ng of phRL-TK per well using the Turbofect transfection reagent (Thermo Scientific, USA). After 5-6 h post-transfection, cells were treated with drug(s) or DMSO vehicle control for 36 h in the presence or absence of LiCl (10 mM). Luciferase assays were performed using the Dual Luciferase Assay System (Promega, USA) according to manufacturer's instructions.

PLC/PRF/5 cells [3] = experiment: [3H]-thymidine incorporation assay, PLC/PRF/5; assay type: cell-based, human; conditions: PLC/PRF/5, 72 h
Method: as §1

Huh7 cells [4] = experiment: [3H]-thymidine incorporation assay, Huh7; assay type: cell-based, human; conditions: Huh7, 72 h
Method: as §1

Huh7 cells [5] = experiment: Western blot of autophagy markers LC3II and p62 in Huh7 cells; assay type: cell-based, human
Text: as §2

Wnt signaling = experiment: Wnt reporter assay, stable HEK293T cell line containing TOPFlash reporter, LiCl-activated; assay type: cell-based, human; conditions: concentration not given
Text: To identify novel Wnt regulators by high throughput screening, a stable HEK293T cell line containing the TOPFlash reporter was established. To identify Wnt inhibitors that targeted molecular events downstream of β-catenin, we treated these cells with lithium chloride to inhibit GSK3 and to stabilize β-catenin. […] We also validated the results by transient transfection of Super 8× TOPFlash or 8× FOPFlash into HEK293T cells. […] Since the results from the stable and transient transfection are compatible, we used stable cell lines for all of the other experiments.
Reporter assay. Wnt reporter assay and cell staining assay have been described previously. We subcloned Super 8×TOPFlash (provided by Professor Randall Moon, University of Washington) into the pGL4.83 [hRlucP/Puro] Vector and transfected it into HEK293T cells. A stable HEK293T cell line containing the TOPFlash reporter was established using puromycin selection. To screen Wnt inhibitors that block the downstream signaling transduction pathway of β-catenin, we treated the reporter cells with 25 mM LiCl to stabilize β-catenin and activate Wnt signaling. The potential Wnt inhibitors identified from screening were validated by transfecting TOPFlash or FOPFlash plus control renilla reporters into HEK293T cells, and then treating the cells with DMSO or testing compounds in DMSO solution. The Wnt signaling was activated by LiCl or Wnt3A treatment.

Huh7 cells [6] = experiment: Seahorse mitochondrial stress test (OCR) in Huh7 cells; assay type: cell-based, human; conditions: Huh7, 24 h
Method: Oxygen Consumption Rates (OCR) were measured on an XF-96 Extracellular Flux Analyzer (Seahorse Bioscience) using the protocol and conditions optimized for HCC cells as previously described by our group. Briefly, the experiments were performed by seeding 10,000 and 20,000 Huh7 cells per well in XFe 96 well-plates 36 h before the experiment. Cells were treated for 24 h with FH535, FH535-N or vehicle control. In OCR experiments the media was supplemented with 25 mM Glucose and 1 mM Pyruvate just before the assay. After minimal incubation time (˜20-30 min in non-CO2 37° C. incubator) mitochondrial stress test was initiated. […] All reagents used in the Seahorse experiments were purchased from Sigma-Aldrich. Analyses of data were performed with Wave 2.2 software (Seahorse Bioscience), Excel (Microsoft Office 2013) and Prism 7.0 (GraphPad Software).

Huh7 cells [7] = experiment: Cyto-ID autophagy detection assay in Huh7 cells; assay type: cell-based, human; conditions: Huh7, 40 h, ±50 μM CQ
Method: Autophagy responses were monitored with the Cyto-ID autophagy detection reagent 2.0 (Enzo Life Sciences, USA) according to the manufacturer's instructions. Huh7 and PLC/PRF/5 cells were seeded in 12-well plates and treated the following day with drugs or DMSO vehicle control at the indicated concentrations. CQ was added to the corresponding wells to a final concentration of 50 μM 8 h prior harvesting. After 40 h of drug treatment, cells were collected and assessed for viability with Zombie Violet dye solution (BioLegend, USA) followed by Cyto-ID autophagy detection reagent staining. Flow cytometry analyses were performed in a BD LSRII at the Flow Cytometry and Cell Sorting Shared Resource Facility of the University of Kentucky Markey Cancer Center and data were analyzed with the FlowJo Software version 7.6.5 (Tree Star, USA). The autophagic flux was quantified by subtracting the Cyto-ID MFI value of the sample without CQ from the Cyto-ID MFI value of the sample with CQ for each condition according to the formula: […]

Huh7 cells [8] = experiment: Annexin V/PI apoptosis assay, Huh7; assay type: cell-based, human; conditions: Huh7, 48 h
Method: as §3

[9] = tested on: purified mitochondria from mouse liver; experiment: Uncoupling assay (OCR) using purified mitochondria from mouse livers; assay type: biochemical; conditions: 5 μM/1 μM
Method: All the steps were carried out at 4° C. or on ice. After mice were euthanized with CO2 followed by rapid decapitation, whole liver was quickly dissected out on a cold block and homogenized using a Teflon-glass dounce homogenizer containing isolation buffer (215 mM mannitol, 75 mM sucrose, 0.1% BSA, 20 mM HEPES, 1 mM EGTA, adjusted to pH 7.2 with KOH). The homogenate was transferred to a 2 mL-microcentrifuge tube and spun at 1,300×g for 3 min. The supernatant was transferred to a fresh 2 mL-microcentrifuge tube and spun at 13,000×g for 10 min. The supernatant was discarded, and the crude mitochondrial pellet was resuspended in a 1.5 mL-microcentrifuge tubes and pelleted again at 10,000×g for 10 min. The supernatant was discarded, and the mitochondrial pellets were resuspended in isolation buffer to obtain an approximate concentration ≥10 mg/mL of mitochondria. The absolute protein concentration was determined using a bicinchoninic acid (BCA) protein assay kit (Pierce, Cat #23,227) by recording absorbance at 560 nm on a Biotek Synergy HT plate reader (Winooski, Vt., USA).
Mitochondrial Bioenergetics Measurements. Mitochondrial bioenergetic measurements were carried out using a Seahorse XFe96 Extracellular Flux Analyzer (Agilent Technologies, Santa Clara, Calif., USA) to measure oxygen consumption rate (OCR) during various states of respiration. The OCR were measured in the presence of different substrates, inhibitors and uncouplers of the electron transport chain using previous methods with slight modifications. The stocks used for the assays were 500 mM pyruvate, 250 mM malate, and 30 mM adenosine diphosphate (ADP), and 1 M succinate (pH for all was adjusted to 7.2). […] Stock solutions of FH535, Y3, FH535-M, and Y3-M were prepared at 5 mM in 100% DMSO. As per the instructions from XFe96 Extracellular Flux kit, the sensor cartridge was hydrated with water and kept at 37° C. overnight before the experiment. One hour before the assay was conducted, water was removed from assay plates and XF calibrant was added before re-incubation. The injection ports A to D of the sensor cartridge were loaded with 25 μL of different combinations of the above substrates/inhibitors/uncouplers as follows. Before loading, the stocks were diluted appropriately in the respiration buffer (RB) (125 mM KCl, 0.1% BSA, 20 mM HEPES, 2 mM MgCl2, and 2.5 mM KH2PO4; pH 7.2) to get the final concentrations in the respiration chamber of 5 μM pyruvate, 2.5 μM malate, 10 μM of succinate and 1 μM ADP (via Port A), 1 μM oligomycin A (via Port B), 4 μM FCCP or 5 μM/1 μM FH535 or 5 μM/1 μM Y3 or 5 μM/1 μM FH535-M or 5 μM/1 μM Y3-M (via Port C) and 0.1 μM antimycin A (via Port D) starting with the initial volume of 175 μL RB in the chamber and diluting it to 9×, 10×, 11× and 12× with every injection through ports A to D, respectively. Once loaded, the sensor cartridge was placed into the Seahorse XFe96 Flux Analyzer for automated calibration. Seahorse Standard XFe96 assay plates were used for loading mitochondria. Initially total mitochondria were diluted to 6 μg/30 μL in RB and 30 μL was loaded in each well resulting in 6 μg mitochondria/well. The assay plates were centrifuged at 3,000 rpm for 4 min at 4° C. to adhere liver mitochondria at the bottom of the wells. After centrifugation, 145 μL RB (pre-incubated to 37° C.) was added without disturbing the mitochondrial layer to obtain a final volume of 175 μL per well. […]

What does the source list for `O=[N+]([O-])c1ccc(NS(=O)(=O)c2cc(Cl)ccc2Cl)c2ccccc12` [Y3, 2,5-dichloro-N-(4-nitronaphthalen-1-yl)benzenesulfonamide]?
cell proliferation (3H-thymidine incorporation) (Hep3B cells): inhibited cell proliferation; AMPK activation (AMPK): strongly activated AMPK; expression of downstream Wnt/β-catenin target genes [1]: reduced; apoptosis (Annexin V/PI) (PLC/PRF/5 cells [2]): significant increased rate of apoptosis; Wnt/β-catenin transcriptional activity (TOP-Flash) (Wnt/β-catenin pathway): reduced the Wnt/β-catenin transcriptional activity; cell proliferation (3H-thymidine incorporation) (PLC/PRF/5 cells [3]): inhibited cell proliferation; cell proliferation (3H-thymidine incorporation) (Huh7 cells [4]): inhibited cell proliferation; accumulation of LC3II in the presence of CQ (autophagic flux, ΔLC3II) (Huh7 cells [5]; Huh7, 50 μM CQ 8 h): reduced at higher doses; LC3II protein levels (Huh7 cells [5]; Huh7, 40 h): increased; p62 protein levels (Huh7 cells [5]; Huh7, 40 h): increased; inhibition of Wnt signaling (Wnt signaling): inhibited Wnt signaling; Proton Leak (Huh7 cells [6]): enhanced Proton Leak; autophagic flux (Cyto-ID) (Huh7 cells [7]): reduction in the autophagic flux; apoptosis (Annexin V/PI) (Huh7 cells [8]): significant increased rate of apoptosis; uncoupling: OCR blocked by oligomycin [9]: increased OCR in dose-dependent manner
